Laboratory results published in US9403702B1, “Commodity water purifier” (A BETTER LIFE WORLDWIDE, LLC, priority 2015, dated 2016).
Read-outs that look alike come from different tables or passages of the source.

Assays:
[1] = test system: gram-positive and gram-negative bacteria; details: typical; cited from earlier work
[2] = test system: gram-positive and gram-negative bacteria; details: in vitro; cited from earlier work
[3] = bound to proteins on skin, mucosa, mouth tissue and teeth; cited from earlier work
[4] = water, cited from earlier work
[5] = Solubility in water; format: physicochemical; details: inventors' finding for CXC
Source text: Although the biological properties of CX are valuable its engineering properties are somewhat challenging. […] However CX is crystalline, and becomes impermeable when formed into a filter. The impermeability renders the filter properties moot. And even if the filter properties remained intact, the presence of CX in effluent would raise the standard for registration with the EPA and for management of the effluent.
In an effort to resolve that problem, U.S. Pat. No. 7,427,409 discloses use of a hydrate, i.e., CX having 1.3 water molecules per chlorhexidine molecules, and the composition is an amorphous material from which a permeable filter can be manufactured. […] The present invention contemplates use of CXH for any value of n for waters of hydration. However the inventors have discovered an unexpected disadvantage of CXH, namely that a small amount of CXH is eroded from the amorphous solid when fluid passes over or through it and thus exits with the effluent. Any water purifier that allows such emissions must be registered with the EPA as a pesticide, as opposed to a purifier, moreover the maker and/or marketer of the filter would be responsible for the ultimate fate and effects of the CXH after it leaves the filter. Moreover CXH decomposes when heated, and the water of hydration evaporates at 96° C. […]

For [H]/N=C(\N/C(=N/[H])NCCCCCCNC(=N)NC(=N)Nc1ccc(Cl)cc1)Nc1ccc(Cl)cc1 [CX, N,N″″1,6-Hexanediylbis[N′-(4-chlorophenyl)(imidodicarbonimidic diamide)]], the “time of uptake of CX into the cells” value [1] is listed as no more than 20 s, the “time to kill virtually all gram-positive and gram-negative bacteria” value [2] is listed as no more than 30 s and the persistence of activity [3] is listed as no less than 48 h. For the same molecule, the solubility [4] was “practically insoluble”.
In the case of [H]/N=C(\N/C(=N/[H])NCCCCCCNC(=N)NC(=N)Nc1ccc(Cl)cc1)Nc1ccc(Cl)cc1 [CXH, chlorhexidine hydrate], the solubility ([4]; hydrate) is given as “essentially insoluble”.
For chlorhexidine citrate [CXC], the solubility [5] was “low solubility”.
